The values below come from patent publication US8212038B2, “Methods and compositions for controlling ectoparasites” (HatchTech Pty Ltd., priority 2003, dated 2012).

The subject of assay [1] is Plutella xylostella eggs (Waite strain). The experiment in a line: Egg hatch of Plutella xylostella after dipping in inhibitor. As to conditions: 10 mM.
Protocol: The egg masses were then placed in a humid box at 25 degrees until egg hatch. Control eggs were exposed to absolute methanol as described above. At day 6 post laying the eggs were assessed from the different treatments and the percentage of egg hatch determined relative to the control as shown in Table 9.
Batches of Plutella eggs that were laid on either fine cloth or parafilm were dipped in a specific inhibitor solution for between 2-10 seconds, the excess solution was drained by blotting with dry tissue paper. The egg masses were then placed in a humid box at 25 degrees until egg hatch. Control eggs were exposed to absolute methanol as described above or not treated.
The egg masses were then placed in a humid box at 25 degrees until egg hatch. Control eggs were exposed to absolute ethanol as described above. On day 6 post laying the eggs were assessed from the different treatments and the percentage of egg hatch determined relative to the control.
Assay [2] has as its system lice eggs. As to the kind of experiment: Lice egg-hatching bioassay, eggs treated once 5 days post laying. The assay is classed as in vivo, Pediculus humanus humanus. As to the method:
To evaluate the potential effects of protease inhibitors on lice egg hatching it was necessary to develop a reliable in vitro bioassay. Male and female clothing lice were fed on a rabbit as previously described. […] During this period the female lice laid their eggs and attached them to the woven cloth. All lice would then be removed and the eggs permitted to incubate for the following 5 days. […] The eggs would then progress through to their final stages of development and hatch. In untreated control eggs a reliable average percentage hatch of between 85-95 percent was obtained using the in vitro egg hatch assay. […] Lice eggs were laid onto cloth as described above. […] Protease inhibitor solutions were typically prepared as stock solutions and added fresh at the appropriate concentration. Specifically stock solutions were prepared as follows: 1,10-phenanthroline (200 mM in methanol) and Bestatin (5 mg/ml in methanol). In addition, the equivalent levels of the solvent were added to the non-inhibitor containing controls eggs to test for any buffer alone effects. Percentage hatch inhibition was calculated as the percentage reduction in egg hatch compared to the untreated control.

Assay [3] has as its system head lice egg (Pediculus humanus capitus). The experiment in a line: Head lice egg hatching time course. As to conditions: 10 mM. The assay is classed as in vivo. As to the method: Tests were carried out to determine if metal chelating agent and metalloprotease inhibitor 1,10-phenanthroline could inhibit head lice egg (Pediculus humanus capitus) hatching as opposed to body lice. Head lice eggs were obtained by placing groups of both 1-2 adult male and 6-8 adult female head lice in separate wells in a 24 well petri dish containing cotton cloth. The petri dish was transferred to a humid incubator at 32° C., 70% RH for 12 hours to permit the female lice to lay their eggs. After 12 hours, all adult lice were removed from the petri dish wells and a series of time-course experiments conducted. A group of eggs (24 hr old) was treated for 10 minutes with 200 μl of a 10 mM solution of 1,10-phenanthroline. A control (i.e., no inhibitor treatment) group of eggs was also included. The eggs were removed from the inhibitor, blotted dry on tissue paper, placed at 32° C., 70% RH and left to hatch. A second group of eggs, (48 hr old) were treated as previously described and also left to hatch. This process was repeated at 24 hr intervals on head lice eggs up to 120 hr post laying. This method of assaying inhibitors more closely mirrors the field situation where lice eggs will be at various stages of development on the head and permits the inhibitory effects to be observed on these different stages of the parasite.

The test system of assay [4] is proteases in the egg shell washings (ESW) of lice eggs. The experiment in a line: Gelatine substrate SDS-PAGE of egg shell washings treated with protease inhibitors. It counts as biochemical, Pediculus humanus humanus. As to conditions: 10 mM inhibitor; 37° C., 3 hrs. As to the method: Within 12 hours of hatching 50 body lice eggs (Pediculus humanus humanus) were removed from the hair and placed in a 1 ml eppendorf tube. 20 μL of distilled water was added to the unhatched eggs and the preparation incubated for 30 minutes at 32° C. The 20 μL was recovered, freeze dried and stored at −70° C. A number of other samples were also collected as described. Hair samples from which unhatched lice eggs had been removed were also collected and incubated as described above. In addition, a sample of unhatched eggs and a sample of hair from which lice eggs had been removed were collected 7 days post laying (within 24 hrs of egg hatching). Both samples were washed in 10 mls of a 1% solution of sodium hypochlorite for 1 minute followed by a 5×1 minute washes in 25 mls in distilled water to remove the hypochlorite. These samples were then incubated in […] of distilled water as described above. In addition, a group of 25 lice eggs that were within 24 hours of hatching, were pretreated with 1% sodium hypochlorite, washed as described above and left to hatch. Within 1-2 hours after hatching the empty egg shells were incubated in 20 μL of distilled water as described above, the washings collected from the hatched egg shells and stored at −70° C. All of the extract samples were then freeze-dried overnight. The freeze-dried samples were then resuspended in […] of non-reducing SDS sample buffer, centrifuged at 10,000 g for 2 minutes and the entire 15 μL loaded on to 10% gelatine substrate SDS-PAGE gels. Gels were run at 4° C. for 10 minutes at 10 mA followed by a further 25 minutes at 15 mA per gel. They were then incubated for 2×20 minutes in a 2.5% Triton-X 100 solution followed by a three hour incubation in 0.1M Tris/HCl containing 1 mM CaCl2 pH 8.0. Activity was detected as clear areas on the gel the result of protease activity degrading the gelatine within the gel.
10% SDS-PAGE gelatine substrate gels were loaded with freeze dried egg shell washings from 100 lice eggs that had been resuspended in 50 μl of non-reducing sample buffer with samples run at 10 μl per lane. Gels were run at 4° C. for 10 minutes at 10 mA per gel followed by a further 25 minutes at 15 mA per gel. Gels were then cut into strips and each strip incubated for 2×20 minutes in a 2.5% Triton-X 100 solution containing a specific inhibitor. The inhibitors used were the serine protease inhibitor PMSF (5 mM), the metalloprotease inhibitor 1,10-phenanthroline (10 mM), the aspartic protease Pepstatin (5 μM) and the cysteine inhibitor E-64 (10 μM). The gel strips were then incubated in 0.1M Tris/HCl containing 1 mM CaCl2 pH 8 containing the different protease inhibitors for 3 hrs at 37° C., before being stained in Coomassie blue and destained as previously described.

In assay [5] the test system is lice eggs. As to the kind of experiment: Standard lice egg-hatching assay with commercial head lice products. The conditions noted are these: across the different stages of lice egg hatching (24-120 hr post laying). The assay is classed as in vivo. On the procedure: These three products were tested according to manufacturer's recommendations. Groups of eggs (24 hr old) were treated with the different products according to manufacturer's recommendations for the appropriate period of time (5-10 minutes) followed by a rinse for 1-2 minutes in 32° C. water. A positive controls (10 mM 1,10-phenanthroline) and two negative controls (no treatment and 20% Methanol) were also incorporated. Post exposure to the different products, the eggs were rinsed with warm water at 32° C. before being blotted dry on tissue paper and placed at 32° C., 70% RH and left to hatch. A second group of eggs, (48 hr old) were treated as previously described and also left to hatch. This process was repeated at 24 hr intervals on head lice eggs up to 120 hr post laying. This method of assaying inhibitors more closely mirrors the field situation where lice eggs will be at various stages of development on the head and permits the inhibitory effects to be observed on these different stages of the parasite.
These two products were tested according to manufacturer's recommendations. Groups of eggs (24 hr old) were treated with the different products according to manufacturer's recommendations for the appropriate period of time (5-10 minutes) followed by a rinse for 1-2 minutes in 32° C. water. Two negative controls (no treatment and 20% ethanol) were also incorporated. […]

For assay [6], the system named is Helicoverpa armigera eggs (Tatura×Toowoomba strains). As to the kind of experiment: Egg hatch of Helicoverpa armigera after exposure to inhibitor. The conditions noted are these: 10 mM.
Protocol: Several hundred Helicoverpa armigera eggs (Tatura×Toowoomba strains) were collected, that had been laid on fine mesh cloth over a 24 hour period.
Batches of Helicoverpa eggs were exposed to a specific inhibitor solution for between 2-10 seconds the excess solution drained by blotting with dry tissue paper. The egg masses were then placed in a humid box at 25 degrees until egg hatch. Control eggs were exposed to absolute methanol as described above.
The test system of assay [7] is lice eggs. As to the kind of experiment: Time course in vitro lice egg hatching assay. The assay is classed as in vivo, Pediculus humanus humanus.
Where [8] appears, read: added within 24 hours of hatching, data not shown.

Each structure is given as a SMILES string. “Also recorded” adds a separate entry of the source.

With `c1cnc2c(c1)ccc1cccnc12` [1,10-phenanthroline, reference compound], in assay [1], the “inhibition of egg hatching in Plutella xylostella (in words)” value is on record as “significantly inhibit egg hatching”. Besides, the “inhibition of egg hatching in lice (in words)” value in the assay on lice eggs [2] (10 mM, eggs treated 5 days post laying) is reported as “significantly inhibited egg hatching”; in the assay on lice eggs [2] (setting [8]) it was “variable inhibition of egg hatching”. In assay [3], the “inhibition of egg hatching in head lice (in words)” value is recorded as “significantly inhibit egg hatching in head lice”. For the same compound, in assay [4], the “protease activity of ESW on gelatine SDS-PAGE after inhibitor treatment” value is given as “significant reduction in protease activity”. In addition, the “ovicidal activity (in words)” value with lice eggs [5] is “highly effective at inhibiting lice egg hatching”. Besides, the “inhibition of egg hatching of Helicoverpa armigera (in words)” value in assay [6] is recorded as “able to inhibit egg hatching at 10 mM only”. In addition, the “inhibition of lice egg hatching (in words)” value with lice eggs [7] (10 mM, following washing of eggs in water) is listed as “still highly efficacious at inhibiting lice egg hatching”; in the assay on lice eggs [7] (varying concentrations (10, 5, 2.5 mM) over the time course) it was “Significant inhibition; also recorded: significantly inhibit egg hatching in lice at all time points examined”.

As to `CC(C)C[C@H](NC(=O)[C@@H](O)[C@H](N)Cc1ccccc1)C(=O)O` [Bestatin, reference compound], the “inhibition of egg hatching in lice (in words)” value is reported as “significantly inhibit lice egg hatching” with lice eggs [2] (5 mM, eggs treated 5 days post laying) and “variable inhibition of egg hatching” with lice eggs [2] (setting [8]). Further, in the assay with lice eggs [7] (5 mM, time course), the “inhibition of lice egg hatching (in words)” value is “significant inhibition, but only when applied approximately 24 hrs prior to egg hatch; also recorded: partially inhibit lice egg hatching”.
